Experiment [1] deals with Uracil-DNA glycosylase (Homo sapiens) (UniProt P13051). The conditions noted are these: Hit No.
Description: Inhibition of UNG by quantifying inhibition of UNG-mediated cleavage and dissociation of quenched duplex DNA oligonucleotides, measured as fluorescence at 594 nm. To generate a functional strand incision and increase turn-over this assay is coupled to APE1.
Experiment [2] deals with Methyl-CpG-binding domain protein 4 (Homo sapiens) (UniProt O95243). The conditions noted are these: Hit No.
Description: Inhibition of MBD4 by quantifying inhibition of MBD4-mediated cleavage and dissociation of quenched duplex DNA oligonucleotides, measured as fluorescence at 594 nm. To generate a functional strand incision and increase turn-over this assay is coupled to APE1.
Experiment [3] has as its target G/T mismatch-specific thymine DNA glycosylase (Homo sapiens) (UniProt Q13569). The conditions noted are these: Hit No.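 Also: human TDG cleavage of quenched duplex DNA oligonucleotides coupled to APE1, strand release read as fluorescence at 594 nm, inhibition of TDG activity.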
Description: Inhibition of TDG by quantifying inhibition of TDG-mediated cleavage and dissociation of quenched duplex DNA oligonucleotides, measured as fluorescence at 594 nm. To generate a functional strand incision and increase turn-over this assay is coupled to APE1.
In experiment [4] the target is T1, Single-strand selective monofunctional uracil DNA glycosylase (Homo sapiens) (UniProt Q53HV7).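 Also: enzymatic SMUG1 assay coupled with APE1, reading fluorescence at 594 nm released when a quenched double-stranded DNA oligonucleotide substrate is cleaved and separated.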
T1 sequence (whole entry): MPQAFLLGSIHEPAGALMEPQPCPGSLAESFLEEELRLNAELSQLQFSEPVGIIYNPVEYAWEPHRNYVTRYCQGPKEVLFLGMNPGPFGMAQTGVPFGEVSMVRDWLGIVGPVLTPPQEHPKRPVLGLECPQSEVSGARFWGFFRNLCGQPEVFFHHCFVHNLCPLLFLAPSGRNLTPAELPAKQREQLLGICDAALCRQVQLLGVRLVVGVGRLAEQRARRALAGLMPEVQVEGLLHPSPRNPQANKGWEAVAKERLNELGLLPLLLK
The note with it: Hit No.
Description: Inhibition of SMUG1 by quantifying inhibition of SMUG1-mediated cleavage and dissociation of quenched duplex DNA oligonucleotides, measured as fluorescence at 594 nm. To generate a functional strand incision and increase turn-over this assay is coupled to APE1.

Experiment [5] addresses T2, Endonuclease III-like protein 1 (Homo sapiens) (UniProt P78549).
T2 sequence (whole entry): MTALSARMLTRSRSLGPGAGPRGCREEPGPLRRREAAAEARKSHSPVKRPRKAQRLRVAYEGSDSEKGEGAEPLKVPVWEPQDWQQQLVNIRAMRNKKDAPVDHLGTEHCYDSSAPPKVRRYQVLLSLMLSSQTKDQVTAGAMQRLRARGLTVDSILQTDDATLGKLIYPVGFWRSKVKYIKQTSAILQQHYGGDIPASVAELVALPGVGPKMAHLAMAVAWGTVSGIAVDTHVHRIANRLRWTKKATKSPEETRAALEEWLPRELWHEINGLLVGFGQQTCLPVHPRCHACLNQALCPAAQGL
The note with it: Hit No.
Description: Inhibition of NTHL1 by quantifying inhibition of NTHL1-mediated cleavage and dissociation of quenched duplex DNA oligonucleotides, measured as fluorescence at 594 nm.

Experiment [6] concerns the target N-glycosylase/DNA lyase (Homo sapiens) (UniProt O15527). The conditions noted are these: Hit No.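 Also: OGG1 cleavage of a quenched duplex DNA oligonucleotide, coupled to APE1 for strand incision, read as fluorescence at 594 nm.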
Description: Inhibition of OGG1 by quantifying inhibition of OGG1-mediated cleavage and dissociation of quenched duplex DNA oligonucleotides, measured as fluorescence at 594 nm. To generate a functional strand incision and increase turn-over this assay is coupled to APE1.
Experiment [7] addresses T3, Endonuclease 8-like 2 (Homo sapiens) (UniProt Q969S2).
T3 sequence (whole entry): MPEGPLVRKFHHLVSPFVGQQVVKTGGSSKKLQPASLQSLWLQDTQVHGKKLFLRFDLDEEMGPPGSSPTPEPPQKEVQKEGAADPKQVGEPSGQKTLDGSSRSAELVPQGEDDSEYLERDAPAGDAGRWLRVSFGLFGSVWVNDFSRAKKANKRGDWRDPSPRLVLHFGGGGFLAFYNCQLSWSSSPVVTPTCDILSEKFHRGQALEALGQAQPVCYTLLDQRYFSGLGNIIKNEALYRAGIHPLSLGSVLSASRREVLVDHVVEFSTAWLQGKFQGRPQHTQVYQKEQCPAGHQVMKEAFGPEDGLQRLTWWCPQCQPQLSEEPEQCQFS
The note with it: Compound Concentration 10.0 uM, Hit No.
Description: Inhibition of NEIL2 by quantifying inhibition of NEIL2-mediated cleavage and dissociation of quenched duplex DNA oligonucleotides, measured as fluorescence at 594 nm.

Experiment [8] has as its target Endonuclease 8-like 1 (Homo sapiens) (UniProt Q96FI4). The conditions noted are these: Hit No.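 Also: fluorescence at 594 nm from quenched duplex DNA oligonucleotides released by NEIL1 cleavage and strand separation, reported as reduction of this enzyme activity.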
Description: Inhibition of NEIL1 by quantifying inhibition of NEIL1-mediated cleavage and dissociation of quenched duplex DNA oligonucleotides, measured as fluorescence at 594 nm.

SMILES strings stand for the structures.

Chain of N-glycosylase/DNA lyase (Homo sapiens) (O15527 whole entry): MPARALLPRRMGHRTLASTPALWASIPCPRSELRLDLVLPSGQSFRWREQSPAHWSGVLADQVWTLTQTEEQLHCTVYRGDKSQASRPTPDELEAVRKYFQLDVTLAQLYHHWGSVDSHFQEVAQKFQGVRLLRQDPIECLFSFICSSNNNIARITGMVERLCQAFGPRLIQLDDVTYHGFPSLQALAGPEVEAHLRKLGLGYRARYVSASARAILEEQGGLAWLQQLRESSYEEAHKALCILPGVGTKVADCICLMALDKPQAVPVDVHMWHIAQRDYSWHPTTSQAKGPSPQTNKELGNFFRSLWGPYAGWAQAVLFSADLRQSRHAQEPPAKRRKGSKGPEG
Chain of Methyl-CpG-binding domain protein 4 (Homo sapiens) (O95243 whole entry, the tested form may be a part): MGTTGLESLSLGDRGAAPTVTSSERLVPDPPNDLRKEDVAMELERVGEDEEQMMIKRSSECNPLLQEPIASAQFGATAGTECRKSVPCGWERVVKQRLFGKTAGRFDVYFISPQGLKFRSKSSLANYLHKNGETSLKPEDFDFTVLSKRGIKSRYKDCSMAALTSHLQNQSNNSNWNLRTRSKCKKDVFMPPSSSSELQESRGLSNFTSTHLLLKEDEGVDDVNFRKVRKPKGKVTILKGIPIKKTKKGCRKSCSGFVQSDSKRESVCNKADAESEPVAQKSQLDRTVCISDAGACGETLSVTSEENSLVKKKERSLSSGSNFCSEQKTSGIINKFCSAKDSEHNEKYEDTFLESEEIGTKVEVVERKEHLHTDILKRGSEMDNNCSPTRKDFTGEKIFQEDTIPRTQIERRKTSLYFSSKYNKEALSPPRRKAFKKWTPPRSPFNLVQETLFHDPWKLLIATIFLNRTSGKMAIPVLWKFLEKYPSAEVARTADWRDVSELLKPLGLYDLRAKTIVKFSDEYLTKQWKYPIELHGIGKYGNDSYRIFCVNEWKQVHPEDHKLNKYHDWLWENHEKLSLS
Chain of G/T mismatch-specific thymine DNA glycosylase (Homo sapiens) (Q13569 whole entry): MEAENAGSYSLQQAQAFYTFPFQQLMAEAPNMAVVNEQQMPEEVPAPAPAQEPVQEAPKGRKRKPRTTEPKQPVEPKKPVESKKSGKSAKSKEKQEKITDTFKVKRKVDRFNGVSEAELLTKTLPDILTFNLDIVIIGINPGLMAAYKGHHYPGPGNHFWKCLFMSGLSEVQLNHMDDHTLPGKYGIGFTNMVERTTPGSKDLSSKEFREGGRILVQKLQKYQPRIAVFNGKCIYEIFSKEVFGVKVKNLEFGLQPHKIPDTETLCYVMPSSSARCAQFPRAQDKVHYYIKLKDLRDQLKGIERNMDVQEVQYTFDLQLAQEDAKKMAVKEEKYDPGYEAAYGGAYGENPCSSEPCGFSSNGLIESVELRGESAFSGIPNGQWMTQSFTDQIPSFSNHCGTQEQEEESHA
Chain of Endonuclease 8-like 1 (Homo sapiens) (Q96FI4 whole entry): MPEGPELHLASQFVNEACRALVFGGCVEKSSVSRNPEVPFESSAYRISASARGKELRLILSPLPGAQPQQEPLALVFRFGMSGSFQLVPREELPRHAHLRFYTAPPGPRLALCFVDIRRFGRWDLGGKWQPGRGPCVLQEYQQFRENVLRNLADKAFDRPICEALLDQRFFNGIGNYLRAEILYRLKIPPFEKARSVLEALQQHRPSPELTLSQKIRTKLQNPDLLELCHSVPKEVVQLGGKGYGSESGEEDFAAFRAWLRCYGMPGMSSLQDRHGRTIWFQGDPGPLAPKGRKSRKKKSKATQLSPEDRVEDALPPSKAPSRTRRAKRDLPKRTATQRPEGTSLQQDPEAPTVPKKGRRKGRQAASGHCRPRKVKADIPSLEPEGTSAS
Chain of Uracil-DNA glycosylase (Homo sapiens) (P13051 whole entry, the tested form may be a part): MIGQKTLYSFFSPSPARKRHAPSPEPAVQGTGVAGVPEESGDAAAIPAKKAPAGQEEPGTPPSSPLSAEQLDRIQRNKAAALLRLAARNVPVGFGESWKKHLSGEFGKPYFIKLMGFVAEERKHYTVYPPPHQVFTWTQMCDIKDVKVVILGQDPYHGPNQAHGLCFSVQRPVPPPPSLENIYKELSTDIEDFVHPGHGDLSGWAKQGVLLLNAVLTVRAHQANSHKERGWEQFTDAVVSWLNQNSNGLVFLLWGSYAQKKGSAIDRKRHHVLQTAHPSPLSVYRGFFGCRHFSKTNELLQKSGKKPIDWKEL

With `Cc1cc(C)c(S(=O)(=O)N(Cc2ccc(-c3cccc(S(C)(=O)=O)c3)cc2)Cc2ccc(C(F)(F)F)o2)c(C)c1`, the inhibition – broadly, the relative decrease from the control value, in per cent – was -2.84% in experiment [1] (Compound Concentration 10.0 uM); 60.3% in experiment [2] (Compound Concentration 10.0 uM); 97.7% in experiment [3] (Compound Concentration 10.0 uM); 7.91% in experiment [4] (Compound Concentration 10.0 uM); 5.94% in experiment [5] (Compound Concentration 10.0 uM); -3.9% in experiment [6] (Compound Concentration 10.0 uM). For the same molecule, the inhibition in experiment [7] was -8.4%.
Turning to `O=C1NC(c2ccccn2)Sc2ccccc21` (centres undefined), the inhibition is -1.67% in experiment [1] (Compound Concentration 10.0 uM); 55.9% in experiment [2] (Compound Concentration 10.0 uM); 34% in experiment [3] (Compound Concentration 10.0 uM); 8.24% in experiment [4] (Compound Concentration 10.0 uM); -7.2% in experiment [5] (Compound Concentration 10.0 uM); -4.34% in experiment [6] (Compound Concentration 10.0 uM). In experiment [7], the inhibition is -4.83%.
`Cc1cnc(Nc2ccc(F)cc2Cl)nc1-c1c[nH]c(C(=O)N[C@H](CO)c2cccc(Cl)c2)c1`: the inhibition in experiment [1] (Compound Concentration 1.0 uM) was 2.73%; in experiment [2] (Compound Concentration 1.0 uM), -4.19%; in experiment [3] (Compound Concentration 1.0 uM), 46.4%; in experiment [4] (Compound Concentration 1.0 uM), 23.9%; in experiment [5] (Compound Concentration 1.0 uM) it was -6.19%; in experiment [6] (Compound Concentration 1.0 uM), -8.42%. Also, the inhibition in experiment [8] (Compound Concentration 1.0 uM) was -0.127%.
`Cc1n[nH]c2ncc(C(=O)N3CCC[C@H]3c3ccc(Cl)cc3)cc12`: the inhibition in experiment [1] (Compound Concentration 1.0 uM) is -1.69%; in experiment [2] (Compound Concentration 1.0 uM), 9.29%; in experiment [3] (Compound Concentration 1.0 uM), 31.7%; in experiment [4] (Compound Concentration 1.0 uM) it was 8.72%; in experiment [5] (Compound Concentration 1.0 uM), 7.06%; in experiment [6] (Compound Concentration 1.0 uM), -6.69%. Further, the inhibition in experiment [8] (Compound Concentration 1.0 uM) is -3.69%.
As to `CCCCCCCCCCCCC/C=C/[C@@H](O)[C@@H](N)COP(=O)([O-])OCC[N+](C)(C)C`, the inhibition in experiment [1] (Compound Concentration 10.0 uM) is -1%; in experiment [2] (Compound Concentration 10.0 uM), -8.69%; in experiment [4] (Compound Concentration 10.0 uM), -8.04%; in experiment [5] (Compound Concentration 10.0 uM), -8.51%; in experiment [6] (Compound Concentration 10.0 uM), 5.72%; in experiment [7], -4.94%.
As for `O=C(c1ccc(F)cc1)N1CC(COc2ccc(Br)cc2)(C(=O)O)C1`, the inhibition in experiment [1] (Compound Concentration 1.0 uM) is 0.879%; in experiment [2] (Compound Concentration 1.0 uM), 67.1%; in experiment [3] (Compound Concentration 1.0 uM), 52.8%; in experiment [4] (Compound Concentration 1.0 uM) it was 15.2%; in experiment [5] (Compound Concentration 1.0 uM), 0.685%; in experiment [6] (Compound Concentration 1.0 uM), -9.75%. Further, the inhibition in experiment [8] (Compound Concentration 1.0 uM) is -7.26%.
For `COc1cccc(CNC(=O)c2nc3scc(CN(C)Cc4ccccc4)c3c(=O)[nH]2)c1`, the inhibition is 2.11% in experiment [1] (Compound Concentration 10.0 uM); 59.5% in experiment [2] (Compound Concentration 10.0 uM); 43.2% in experiment [3] (Compound Concentration 10.0 uM); 12.8% in experiment [4] (Compound Concentration 10.0 uM); -9.83% in experiment [5] (Compound Concentration 10.0 uM); 4.36% in experiment [6] (Compound Concentration 10.0 uM). Also, in experiment [8] (Compound Concentration 10.0 uM), the inhibition was -6.05%.
`CC(C)(C)OC(=O)N1CCCC1CNC1CCC(c2cc(F)ccc2F)(S(=O)(=O)c2ccc(Cl)cc2)CC1` (centres undefined): the inhibition is 1.86% in experiment [1] (Compound Concentration 10.0 uM); 45.5% in experiment [2] (Compound Concentration 10.0 uM); 17.3% in experiment [3] (Compound Concentration 10.0 uM); 19.7% in experiment [4] (Compound Concentration 10.0 uM); -1.29% in experiment [5] (Compound Concentration 10.0 uM); 4.85% in experiment [6] (Compound Concentration 10.0 uM).
With `COc1c(OCCCN2CCOCC2)ccc2c1N=C(NC(=O)c1cnc(N)nc1)N1CCN=C21`, the inhibition in experiment [1] (Compound Concentration 1.0 uM) was -3.63%; in experiment [2] (Compound Concentration 1.0 uM), -2.38%; in experiment [3] (Compound Concentration 1.0 uM) it was 26.4%; in experiment [4] (Compound Concentration 1.0 uM), 20%; in experiment [5] (Compound Concentration 1.0 uM) it was 4.97%; in experiment [6] (Compound Concentration 1.0 uM), 5.38%. Moreover, the inhibition in experiment [8] (Compound Concentration 1.0 uM) was -8.98%.
Regarding `COc1ccc(CC[C@@H](OC(=O)[C@@H]2CCCCN2C(=O)[C@H](c2cc(OC)c(OC)c(OC)c2)C2CCCCC2)c2cccc(OCCN3CCOCC3)c2)cc1OC`, the inhibition in experiment [1] (Compound Concentration 10.0 uM) was 0.833%; in experiment [2] (Compound Concentration 10.0 uM), 43.3%; in experiment [3] (Compound Concentration 10.0 uM), 31.2%; in experiment [4] (Compound Concentration 10.0 uM), 4.21%; in experiment [5] (Compound Concentration 10.0 uM), -7.86%; in experiment [6] (Compound Concentration 10.0 uM), -4.59%.
Take `CCc1cc(Nc2nccc(-c3c(-c4ccc(OC)c(C(=O)Nc5c(F)cccc5F)c4)nc4ccccn34)n2)c(OC)cc1N1CCC(N2CCN(S(C)(=O)=O)CC2)CC1`: the inhibition is 0.56% in experiment [1] (Compound Concentration 1.0 uM); 32.9% in experiment [2] (Compound Concentration 1.0 uM); 50.7% in experiment [3] (Compound Concentration 1.0 uM); 21.4% in experiment [4] (Compound Concentration 1.0 uM); -1.31% in experiment [5] (Compound Concentration 1.0 uM); 10.7% in experiment [6] (Compound Concentration 1.0 uM). The inhibition in experiment [8] (Compound Concentration 1.0 uM) was -8.84%.

The values are drawn from ChEMBL document CHEMBL5665443, “Enzyme Inhibitor Single Concentration assay results for EUbOPEN Chemogenomics Library” (2024).
